Experimental data as given in patent US8980223B2, “Methods of preventing ischemic injury using peripheral nociceptive stimulation” (University of Cincinnati, priority 2009, dated 2015).
Entries after “also recorded” stand apart in the source; their conditions may differ. Values belong to the compound of their own block, whether it stands above or below them.

Assays:
TRPV1 = biological target: T1, TRPV1 (Mus musculus, UniProt Q704Y3); assay: Topical capsaicin before ischemia/reperfusion in wild-type versus TRPV1 knock-out mice, infarct size; assay type: in vivo; details: capsaicin topically to the abdomen prior to ischemia and reperfusion, compared to TRPVKO mice
T1 construct: data from wild-type mice topically treated with capsaicin administered to the abdomen; from tissue; host or cells: living mice; skin nociceptors (C-fibers) of the abdomen
T1 sequence (Q704Y3 whole entry, the tested form may be a part): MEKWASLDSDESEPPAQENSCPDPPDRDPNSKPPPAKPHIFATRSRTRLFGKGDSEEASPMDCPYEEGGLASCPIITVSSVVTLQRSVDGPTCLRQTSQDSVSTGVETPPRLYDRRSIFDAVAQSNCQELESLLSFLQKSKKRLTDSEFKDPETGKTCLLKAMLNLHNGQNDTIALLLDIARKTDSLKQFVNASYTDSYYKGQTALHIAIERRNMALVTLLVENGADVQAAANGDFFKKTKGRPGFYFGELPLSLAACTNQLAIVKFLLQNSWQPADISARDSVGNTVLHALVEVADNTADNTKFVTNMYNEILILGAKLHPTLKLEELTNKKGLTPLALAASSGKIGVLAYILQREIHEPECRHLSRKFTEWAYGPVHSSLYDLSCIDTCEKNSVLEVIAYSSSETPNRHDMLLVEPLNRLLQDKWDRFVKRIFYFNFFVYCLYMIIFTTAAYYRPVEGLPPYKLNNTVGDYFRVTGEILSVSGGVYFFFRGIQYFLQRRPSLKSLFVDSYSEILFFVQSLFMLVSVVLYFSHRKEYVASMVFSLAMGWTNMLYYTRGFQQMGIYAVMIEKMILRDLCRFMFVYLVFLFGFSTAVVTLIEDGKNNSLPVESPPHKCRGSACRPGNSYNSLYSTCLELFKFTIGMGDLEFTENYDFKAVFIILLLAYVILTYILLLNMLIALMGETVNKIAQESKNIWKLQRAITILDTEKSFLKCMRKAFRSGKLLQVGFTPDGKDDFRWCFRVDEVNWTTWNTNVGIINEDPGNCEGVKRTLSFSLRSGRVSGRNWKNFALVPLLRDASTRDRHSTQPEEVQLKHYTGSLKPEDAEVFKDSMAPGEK
Description: Infarct size as a percent of risk region is presented on the y-axis. The first bar presents data from wild-type mice topically treated with capsaicin administered to the abdomen prior to surgical induction of ischemia and reperfusion (WT, Capsaicin, hatched bar). The second bar presents data from TRPV 1 knockout mice topically treated with capsaicin administered to the abdomen prior to surgical induction of ischemia and reperfusion (TRPVKO, Capsaicin, dotted bar). The third bar presents data from TRPV 1 knockout mice subjected to sham treatment prior to surgical induction of ischemia and reperfusion (TRPVKO No capsaicin, empty bar).

[1] = system: murine ischemia/reperfusion model of myocardial infarction; assay: Topical capsaicin during ischemia or after reperfusion, infarct size; assay type: in vivo, mice; details: p<0.01
[2] = system: murine ischemia/reperfusion model of myocardial infarction; assay: Mouse ischemia/reperfusion model, topical capsaicin 15 min prior to coronary occlusion, infarct size; assay type: in vivo, mice
[3] = system: peripheral C-fiber nociceptors; assay: Lidocaine before remote electrical stimulation and ischemia/reperfusion, infarct size; assay type: in vivo, mice; details: 2% lidocaine, 10 μl s.c., prior to electrical stimulation and ischemia; compared with vehicle ES
Description: (§1) A previously described mouse model of ischemia and reperfusion (I/R) injury in vivo was used (Ren et al. (2004) J. Surg Res. 121(1):120-129; Fan et al (2005)Circulation 111(14):1792-1799; Zhou et al (2007)Cardiovascular Research 75(3) 487-497; and Diwan et a/(2007) J. Clinical Investigation 117(10):2825-2833, herein incorporated by reference in their entirety). Mice were anesthetized with sodium pentobarbital (90 mg/kg ip), intubated with PE 90 tubing and ventilated using a mouse miniventilator (Harvard Apparatus, Holliston, Mass.). All mice were continuously monitored by electrocardiography (ECG) (DigiMed Sinus Rhythm Analyzer, Micro-Med Inc), and mice without evidence of ischemia and timely reperfusion were excluded from the studies. […]
(§2) Mice were euthanized either 4 or 24 hours after reperfusion and infarct size determination and imaging were performed by previously described methods (Ren et al. (2004) J. Surg Res. 121(1):120-129 and Guo et al (1998) Am J. Physiology 275(4 Pt 2):H1375-1387, herein incorporated by reference in their entirety). […] Infarct size was determined by the method of Fishbein et al (1981) Am Heart J 101(5):593-600, herein incorporated by reference in its entirety. […]

protein kinase C(PKC) = assay: Chelerythrine before electrical stimulation and ischemia/reperfusion, infarct size; assay type: in vivo, mice; details: chelerythrine plus electrical stimulation compared with vehicle alone plus electrical stimulation
Excerpt: FIG. 3C presents data from wild-type mice treated with chelerythrine prior to sham treatment or electrical stimulation followed by the ischemia/reperfusion procedure. Chelerythrine is a relatively selective general protein kinase C(PKC) inhibitor. Most previously described forms of preconditioning or postconditioning require PKC activation in cardiomyocytes. Typically this is indicative of activation and/or repression of specific PKC isoforms in the hearts. Infarct size as a percentage of risk region was assessed and is indicated. The hatched bar presents data from mice treated with chelerythrine and subject to sham treatment (chelerythrine control). The dotted bar presents data from mice treated with vehicle alone and electrically stimulated (vehicle ES). […]
as §1, with “Mice were anesthetized with sodium pentobarbital (90 mg/kg ip), intubated with PE 90 tubing and ventilated using a mouse miniventilator (Harvard Apparatus, Holliston, Mass.).” left out

TRPV2 = biological target: T2, TRPV2 (Mus musculus, UniProt Q9WTR1); assay: Topical probenecid in mouse ischemia/reperfusion model, infarct size; assay type: in vivo, mice; details: topical probenecid application versus control animals; p<0.07
T2 construct: mice that received topical probenecid application; from tissue; host or cells: living mice (topical application to skin)
T2 sequence (Q9WTR1 1-756): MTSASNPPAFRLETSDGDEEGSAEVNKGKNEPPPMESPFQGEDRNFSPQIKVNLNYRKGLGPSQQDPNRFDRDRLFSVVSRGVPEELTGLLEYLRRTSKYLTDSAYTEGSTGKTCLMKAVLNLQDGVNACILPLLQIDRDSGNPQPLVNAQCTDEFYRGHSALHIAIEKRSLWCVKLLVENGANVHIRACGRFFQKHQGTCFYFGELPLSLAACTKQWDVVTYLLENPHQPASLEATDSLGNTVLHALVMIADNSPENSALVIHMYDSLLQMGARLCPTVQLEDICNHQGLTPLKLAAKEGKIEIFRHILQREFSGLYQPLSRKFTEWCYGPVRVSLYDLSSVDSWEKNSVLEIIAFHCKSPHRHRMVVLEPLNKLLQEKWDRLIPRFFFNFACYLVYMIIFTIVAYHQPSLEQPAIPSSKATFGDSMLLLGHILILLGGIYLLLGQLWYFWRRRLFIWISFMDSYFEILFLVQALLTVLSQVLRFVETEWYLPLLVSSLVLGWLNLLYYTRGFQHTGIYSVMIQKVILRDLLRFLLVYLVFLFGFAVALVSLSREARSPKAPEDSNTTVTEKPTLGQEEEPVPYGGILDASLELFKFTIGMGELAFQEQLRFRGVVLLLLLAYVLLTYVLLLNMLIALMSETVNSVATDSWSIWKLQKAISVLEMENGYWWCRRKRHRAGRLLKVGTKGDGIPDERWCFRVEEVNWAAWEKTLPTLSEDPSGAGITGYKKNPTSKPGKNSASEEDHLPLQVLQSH
Excerpt: FIG. 11 presents a graph of infarct size as a percent of risk area in mice that received topical probenecid application (empty bars) or sham treatments (hatched bars).
as §1, §2

β-adrenergic receptor = system: β-adrenergic receptor; set-up: species or system mice; details: mouse, in vivo
Description: The mice then underwent either sham treatment or electrical stimulation (ES) followed by the ischemia/reperfusion procedure.
A lateral thoracotomy (1.5 cm incision between the second and third ribs was performed to provide exposure of the left anterior descending coronary artery (LAD). Vascular bundles in the vicinity were coagulated using a microcoagulator (Medical Industries Inc, St. Petersburg Fla.). An 8-O nylon suture was placed around the LAD 2-3 mm from the tip of the left auricle and a piece of soft silicon tubing (0.64 mm ID, 1.19 mm OD) was placed over the artery. Coronary occlusion was achieved by tightening and tying the suture. Coronary occlusion was for 45 minutes, unless indicated otherwise. At the end of the occlusion, the suture was untied and left in place. Ischemia was confirmed by visual observation of cyanosis and by continuous ECG monitoring (QRS complex widening, T wave inversion and ST segment changes); reperfusion was confirmed by reversal of these effects. […]

infarct size as a percent of risk region (TRPV1): reduced myocardial infarct size
Structure (SMILES): COc1cc(CNC(=O)CCCC/C=C/C(C)C)ccc1O [capsaicin, (6E)-N-[(4-Hydroxy-3-methoxyphenyl)methyl]-8-methyl-6-nonenamide]
infarct size as a percent of risk area ([1]; topical capsaicin application after reperfusion (postCON) versus sham): significantly reduces infarct size
infarct size as a percent of risk area ([1]; topical capsaicin application during ischemia (conditioning) versus sham): significantly reduces infarct size
reduction of infarct size ([2]; remote pre-conditioning, stimulus given 15 minutes prior to the ischemia, 45 min coronary occlusion, versus sham, n=6): 85%
Infarct size as a percent of the risk region ([2]; remote pre-treatment prior to ischemia/reperfusion versus sham, P<0.01): substantial reduction in infarct size

Structure (SMILES): CCN(CC)CC(=O)Nc1c(C)cccc1C [lidocaine]
infarct size as a percent of risk region [3]: no significant cardioprotection relative to controls; also recorded: significantly higher percentage of risk region

Structure (SMILES): COc1ccc2c(c[n+](C)c3c4cc5c(cc4ccc23)OCO5)c1OC [chelerythrine]
Infarct size as a percentage of risk region (protein kinase C(PKC)): reduced inhibition of ischemia-related tissue damage

infarct size as a percent of risk region (TRPV2): significantly reduced
Structure (SMILES): CCCN(CCC)S(=O)(=O)c1ccc(C(=O)O)cc1 [probenecid]

Structure (SMILES): CC(C)NCC(O)COc1cccc2ccccc12 (stereo not drawn) [propanolol]
Infarct size as a percentage of risk region (β-adrenergic receptor): significantly higher
